Assay results published in ChEMBL document CHEMBL1201862, “PubChem BioAssay data set” (2004).
Activity calls are given as the source filed them.

Columns and labels:
Leucine aminopeptidase = target: T1, Leucine aminopeptidase (Plasmodium falciparum 3D7, UniProt Q8IL11); test: P. falciparum M17LAP inhibitors, primary screen, biochemical, fluorogenic H-Leu-NHMec substrate, 1536-well (AID 1619); assay type: functional
T1 sequence (Q8IL11 whole entry): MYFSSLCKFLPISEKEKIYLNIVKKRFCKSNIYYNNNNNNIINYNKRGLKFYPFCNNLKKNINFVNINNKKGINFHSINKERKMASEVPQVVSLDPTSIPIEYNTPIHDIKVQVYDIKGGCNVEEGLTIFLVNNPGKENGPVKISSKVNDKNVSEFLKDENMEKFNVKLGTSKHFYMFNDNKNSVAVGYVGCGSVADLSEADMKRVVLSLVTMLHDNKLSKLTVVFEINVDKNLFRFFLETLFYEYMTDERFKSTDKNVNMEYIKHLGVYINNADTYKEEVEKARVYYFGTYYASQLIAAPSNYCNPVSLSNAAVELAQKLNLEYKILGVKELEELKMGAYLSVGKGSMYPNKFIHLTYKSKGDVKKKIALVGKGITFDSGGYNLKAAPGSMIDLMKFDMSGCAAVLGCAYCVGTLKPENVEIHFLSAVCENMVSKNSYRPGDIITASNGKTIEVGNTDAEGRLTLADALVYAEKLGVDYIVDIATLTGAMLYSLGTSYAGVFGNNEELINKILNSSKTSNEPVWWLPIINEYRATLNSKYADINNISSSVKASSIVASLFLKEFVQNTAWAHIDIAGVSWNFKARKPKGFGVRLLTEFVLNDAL

[1] = target: T2, RNA-binding protein pos-1 (Caenorhabditis elegans, UniProt G5EF15); test: inhibitors of POS-1/mex-3 RNA binding, dose response, biochemical, fluorescence polarization (AID 1964);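 further: purified POS-1 fused to maltose binding protein made in E. coli; potency of compounds blocking POS-1 binding to fluorescent RNA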
T2 sequence (G5EF15 whole entry): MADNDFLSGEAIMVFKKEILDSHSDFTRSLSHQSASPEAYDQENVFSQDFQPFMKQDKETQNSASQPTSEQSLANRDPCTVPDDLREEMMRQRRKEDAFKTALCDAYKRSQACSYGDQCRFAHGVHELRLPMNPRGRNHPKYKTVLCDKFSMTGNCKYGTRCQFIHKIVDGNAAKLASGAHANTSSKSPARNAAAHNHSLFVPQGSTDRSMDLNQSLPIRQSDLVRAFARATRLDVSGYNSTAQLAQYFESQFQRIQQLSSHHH

[2] = target: T3, Zinc finger protein mex-5 (Caenorhabditis elegans, UniProt Q9XUB2); test: MEX-5/TCR-2 RNA interaction inhibitors, dose response, biochemical, C. elegans, fluorescence polarization (AID 1960)
T3 sequence (Q9XUB2 whole entry): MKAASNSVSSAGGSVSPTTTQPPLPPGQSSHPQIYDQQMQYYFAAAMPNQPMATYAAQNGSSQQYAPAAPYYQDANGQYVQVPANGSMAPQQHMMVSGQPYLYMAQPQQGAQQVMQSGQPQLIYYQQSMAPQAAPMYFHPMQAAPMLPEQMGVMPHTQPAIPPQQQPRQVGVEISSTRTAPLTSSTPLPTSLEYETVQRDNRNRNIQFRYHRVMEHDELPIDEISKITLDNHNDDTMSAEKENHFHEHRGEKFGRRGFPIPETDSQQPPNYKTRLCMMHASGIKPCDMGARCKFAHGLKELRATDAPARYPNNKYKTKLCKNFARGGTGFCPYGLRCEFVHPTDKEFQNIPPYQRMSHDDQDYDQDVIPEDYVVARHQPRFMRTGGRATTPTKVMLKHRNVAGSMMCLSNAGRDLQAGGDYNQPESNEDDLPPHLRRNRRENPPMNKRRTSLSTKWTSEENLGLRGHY

Cytochrome P450 3A4 = Cytochrome P450 3A4 (Homo sapiens, UniProt P08684); conditions: Potency;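 further: confirmatory qHTS run detecting inhibitors and substrates of CYP3A4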
Sequence of Cytochrome P450 3A4 (P08684 whole entry): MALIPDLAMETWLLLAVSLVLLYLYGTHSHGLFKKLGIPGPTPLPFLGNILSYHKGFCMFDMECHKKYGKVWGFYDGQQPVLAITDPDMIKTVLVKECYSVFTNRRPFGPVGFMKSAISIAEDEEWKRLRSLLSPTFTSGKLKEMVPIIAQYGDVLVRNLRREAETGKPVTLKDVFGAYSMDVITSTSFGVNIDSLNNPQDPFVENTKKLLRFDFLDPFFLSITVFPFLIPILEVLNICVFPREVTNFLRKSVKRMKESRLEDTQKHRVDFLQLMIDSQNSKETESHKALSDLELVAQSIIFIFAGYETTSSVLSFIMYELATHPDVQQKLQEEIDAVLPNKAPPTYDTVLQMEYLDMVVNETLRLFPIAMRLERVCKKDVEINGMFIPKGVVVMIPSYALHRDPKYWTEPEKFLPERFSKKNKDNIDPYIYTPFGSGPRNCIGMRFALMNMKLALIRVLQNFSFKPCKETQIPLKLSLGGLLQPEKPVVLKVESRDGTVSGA

Cytochrome P450 2C9 = Cytochrome P450 2C9 (Homo sapiens, UniProt P11712)
Sequence of Cytochrome P450 2C9 (P11712 whole entry): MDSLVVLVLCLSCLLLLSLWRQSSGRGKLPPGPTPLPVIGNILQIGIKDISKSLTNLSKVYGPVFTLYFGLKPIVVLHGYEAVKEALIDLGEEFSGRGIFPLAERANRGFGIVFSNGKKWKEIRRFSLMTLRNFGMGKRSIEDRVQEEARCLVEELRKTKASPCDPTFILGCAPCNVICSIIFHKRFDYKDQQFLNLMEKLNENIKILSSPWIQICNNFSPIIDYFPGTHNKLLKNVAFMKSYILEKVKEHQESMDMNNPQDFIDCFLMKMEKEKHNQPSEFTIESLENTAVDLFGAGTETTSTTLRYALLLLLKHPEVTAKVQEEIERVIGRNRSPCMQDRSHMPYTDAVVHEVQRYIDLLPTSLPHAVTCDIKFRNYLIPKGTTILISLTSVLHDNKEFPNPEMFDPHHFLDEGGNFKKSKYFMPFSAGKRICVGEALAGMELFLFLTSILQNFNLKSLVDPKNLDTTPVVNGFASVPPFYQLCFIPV

[3] = HEp-2 cell cytotoxicity, dose response, cytotoxicity control for RSV inhibitor project, HTS (AID 2410); assay type: functional; conditions: human respiratory syncytial virus
[4] = target: T4, Replicative DNA helicase DnaB (Mycobacterium tuberculosis, UniProt P9WMR3); test: DnaB intein splicing inhibitors, dose response, biochemical, cell-free fluorescence (AID 449749); assay type: functional
T4 sequence (P9WMR3 whole entry): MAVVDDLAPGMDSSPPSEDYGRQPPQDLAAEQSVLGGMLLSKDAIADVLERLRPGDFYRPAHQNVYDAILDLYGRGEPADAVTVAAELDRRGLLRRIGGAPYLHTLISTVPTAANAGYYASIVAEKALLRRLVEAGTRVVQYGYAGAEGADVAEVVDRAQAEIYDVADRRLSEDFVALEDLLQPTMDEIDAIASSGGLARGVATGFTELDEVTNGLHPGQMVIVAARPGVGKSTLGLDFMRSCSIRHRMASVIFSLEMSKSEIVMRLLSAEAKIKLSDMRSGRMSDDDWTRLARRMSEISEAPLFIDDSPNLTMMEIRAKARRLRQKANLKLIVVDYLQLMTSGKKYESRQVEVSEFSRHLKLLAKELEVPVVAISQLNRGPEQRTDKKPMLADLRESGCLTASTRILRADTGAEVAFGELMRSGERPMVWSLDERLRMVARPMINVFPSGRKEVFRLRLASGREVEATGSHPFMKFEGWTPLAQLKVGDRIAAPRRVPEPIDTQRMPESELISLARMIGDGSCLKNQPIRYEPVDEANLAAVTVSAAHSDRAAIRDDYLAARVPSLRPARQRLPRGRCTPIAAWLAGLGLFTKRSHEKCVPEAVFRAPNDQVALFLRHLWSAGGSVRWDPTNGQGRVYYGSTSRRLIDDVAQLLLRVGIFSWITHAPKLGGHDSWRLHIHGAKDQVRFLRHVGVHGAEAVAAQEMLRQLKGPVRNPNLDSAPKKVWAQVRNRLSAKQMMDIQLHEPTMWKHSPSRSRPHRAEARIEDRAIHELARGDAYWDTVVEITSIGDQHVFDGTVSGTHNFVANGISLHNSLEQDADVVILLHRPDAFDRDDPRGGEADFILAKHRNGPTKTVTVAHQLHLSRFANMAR

Protein RecA = target: T5, Protein RecA (Mycobacterium tuberculosis, UniProt P9WHJ3); test: Fluorescence Cell-Free Homogeneous Dose Retest to Identify Inhibitors of RecA-Intein Splicing Activity. [Related pubchem assays (depositor defined):AID2097, AID2223, AID489010, AID492950]; assay type: functional
T5 sequence (P9WHJ3 whole entry): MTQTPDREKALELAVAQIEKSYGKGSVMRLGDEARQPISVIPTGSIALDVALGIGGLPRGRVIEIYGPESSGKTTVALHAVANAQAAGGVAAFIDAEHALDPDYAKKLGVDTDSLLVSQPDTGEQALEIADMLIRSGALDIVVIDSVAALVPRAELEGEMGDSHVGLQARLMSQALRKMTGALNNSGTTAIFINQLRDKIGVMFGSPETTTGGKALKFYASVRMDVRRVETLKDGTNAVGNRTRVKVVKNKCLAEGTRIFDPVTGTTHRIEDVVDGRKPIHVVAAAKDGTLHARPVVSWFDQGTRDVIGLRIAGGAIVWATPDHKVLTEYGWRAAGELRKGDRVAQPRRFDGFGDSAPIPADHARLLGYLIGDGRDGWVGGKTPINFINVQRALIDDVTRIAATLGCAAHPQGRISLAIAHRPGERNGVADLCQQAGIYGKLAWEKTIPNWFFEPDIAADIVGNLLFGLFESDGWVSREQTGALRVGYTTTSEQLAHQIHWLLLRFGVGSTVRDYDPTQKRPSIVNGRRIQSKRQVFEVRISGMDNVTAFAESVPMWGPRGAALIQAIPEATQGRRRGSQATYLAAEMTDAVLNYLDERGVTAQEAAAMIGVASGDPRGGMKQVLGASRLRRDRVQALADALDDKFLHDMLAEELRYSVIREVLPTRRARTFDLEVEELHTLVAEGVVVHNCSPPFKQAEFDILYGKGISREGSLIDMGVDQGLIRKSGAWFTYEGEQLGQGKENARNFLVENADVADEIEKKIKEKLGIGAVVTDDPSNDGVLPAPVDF

Aminopeptidase N = target: T6, Aminopeptidase N (Plasmodium falciparum FcB1/Columbia, UniProt O96935); test: P. falciparum M1AAP inhibitors, biochemical, fluorogenic H-Leu-NHMec substrate, 1536-well (AID 1445); design: species or system Plasmodium falciparum 3D7, 3D7
T6 sequence (O96935 whole entry): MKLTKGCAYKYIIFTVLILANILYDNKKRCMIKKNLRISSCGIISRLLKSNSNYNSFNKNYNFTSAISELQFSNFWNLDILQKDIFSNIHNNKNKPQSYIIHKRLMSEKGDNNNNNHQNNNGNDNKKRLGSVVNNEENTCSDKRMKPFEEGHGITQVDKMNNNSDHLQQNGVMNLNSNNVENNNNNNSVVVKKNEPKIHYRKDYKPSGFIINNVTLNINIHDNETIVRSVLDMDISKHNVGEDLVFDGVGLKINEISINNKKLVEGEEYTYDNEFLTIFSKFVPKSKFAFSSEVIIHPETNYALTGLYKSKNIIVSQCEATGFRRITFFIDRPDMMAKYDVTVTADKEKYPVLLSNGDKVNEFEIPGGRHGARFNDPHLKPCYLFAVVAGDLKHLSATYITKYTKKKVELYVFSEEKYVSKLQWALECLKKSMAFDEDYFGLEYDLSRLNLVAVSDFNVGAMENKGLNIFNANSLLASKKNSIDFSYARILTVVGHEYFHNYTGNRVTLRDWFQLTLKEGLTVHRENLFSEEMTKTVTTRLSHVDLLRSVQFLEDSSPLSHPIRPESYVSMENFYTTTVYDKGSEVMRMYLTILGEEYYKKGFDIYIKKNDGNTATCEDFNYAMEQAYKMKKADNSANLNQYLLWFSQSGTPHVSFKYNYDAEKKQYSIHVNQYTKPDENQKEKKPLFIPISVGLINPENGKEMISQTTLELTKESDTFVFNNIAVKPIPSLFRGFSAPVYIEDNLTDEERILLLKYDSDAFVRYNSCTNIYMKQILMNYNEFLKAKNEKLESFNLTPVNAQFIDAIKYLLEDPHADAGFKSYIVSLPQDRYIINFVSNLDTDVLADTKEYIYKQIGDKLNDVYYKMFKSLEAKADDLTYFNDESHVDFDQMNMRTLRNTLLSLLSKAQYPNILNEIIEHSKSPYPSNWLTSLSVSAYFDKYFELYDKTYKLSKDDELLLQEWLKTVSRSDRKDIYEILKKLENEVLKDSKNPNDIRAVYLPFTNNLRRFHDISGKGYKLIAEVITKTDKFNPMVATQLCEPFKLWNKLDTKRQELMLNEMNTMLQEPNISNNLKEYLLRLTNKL

COc1ccc2c(c1OC)C(=O)OC2Nc1nc(-c2cc3ccccc3oc2=O)cs1 (stereo not given)
IC50 (Leucine aminopeptidase): 5.03 µM (active)

CN1C(=O)C(=Cc2cn(CC(=O)N3CCCCC3)c3ccccc23)C(=O)N(C)C1=O
EC50 [1]: > 300 µM (not active)
EC50 [2]: > 300 µM (not active)

N#Cc1ccc(C23CC4(C2)[C@H](CN(CC2CCCCC2)[C@@H]4c2ccccc2)C3c2ccc(Cl)nc2)cc1 (stereo not given in full)
AC50 (Cytochrome P450 3A4): 15.8 µM (inconclusive)

C=CCN1C(=O)NC(=O)/C(=C/c2ccc(OCC(=O)Nc3ccc(C)cc3)cc2)C1=O
EC50 [1]: > 300 µM (not active)
EC50 [2]: > 300 µM (not active)

CCn1c(SCC(=O)Nc2cc(C)on2)nnc1-c1ccc(OC)cc1
EC50 [1]: > 300 µM (not active)
EC50 [2]: > 300 µM (not active)

CC(=O)c1c(O)c(C)c(O)c2c1OC1=CC(=O)C(C(C)=O)C(=O)C12C (stereo not given)
AC50 (Cytochrome P450 3A4): 0.159 µM (inconclusive)

COc1cccc(Nc2ncc3nc(-c4ccc(F)cc4)c(=O)n(CCC#N)c3n2)c1
AC50 (Cytochrome P450 2C9): inconclusive

COC(=O)CCCCCN1C(=O)NC(CC2CC2)C(C(=O)OCc2ccccc2)=C1C (stereo not given)
AC50 (Cytochrome P450 3A4): 20 µM (inconclusive)

CC(C)c1c(O)ccc2c1CCC1[C@@](C)(C=O)CCC[C@@]21C (stereo not given in full)
AC50 (Cytochrome P450 3A4): 31.6 µM (inconclusive)

CCN1C(C)=C(C(=O)OC)C(c2ccccc2)N2C(=O)[C@](O)(C(=O)OC)C(c3ccccc3)C(C(C)=O)=C12 (stereo not given in full)
AC50 (Cytochrome P450 3A4): 3.98 µM (inconclusive)

Cc1ccc(C2c3sc(=O)[nH]c3SC3C(=O)NC(=O)C32)cc1 (stereo not given)
EC50 [1]: > 300 µM (inconclusive)
EC50 [2]: 6.53 µM (inconclusive)

COc1ccc(-c2nnc(SCc3cccc(C)c3)n2N)cc1
AC50 (Cytochrome P450 2C9): inconclusive

O=C(O)Cn1cc(/C=C2\C(=O)NC(=O)N(c3ccc(F)cc3)C2=O)c2ccccc21
EC50 [1]: 9.27 µM (active)
EC50 [2]: 8.21 µM (active)

CCOC(=O)C1Nc2c(F)cc(C)cc2C2c3ccccc3CC12 (stereo not given)
CC50 [3]: 31.9 µM (active)
AC50 [4]: 11.4 µM (active)
EC50 (Protein RecA): 36 µM (active)

CCOP(=O)(OCC)c1nc(/C=C/c2ccccc2)oc1NCc1ccc(OC)cc1
IC50 (Aminopeptidase N): 128 µM (active)

COCc1cc(O)n2nc(-c3cccs3)cc2n1
EC50 [1]: > 300 µM (not active)
EC50 [2]: > 300 µM (not active)

O=C(CSc1nnc(-c2ccc(NS(=O)(=O)c3ccccc3)cc2)o1)NCC1CCCO1 (stereo not given)
IC50 (Leucine aminopeptidase): 6.04 µM (active)

O=C1c2c(O)cc(O)cc2OC(c2ccc(O)c(O)c2)C1O (stereo not given) [TAXIFOLIN]
AC50 (Cytochrome P450 3A4): 25.1 µM (inconclusive)

Cc1ccccc1NS(=O)(=O)c1cc(C(=O)N2CCCC2)ccc1C
EC50 [1]: > 300 µM (not active)
EC50 [2]: > 300 µM (not active)

Nc1n[nH]c(N)c1N=Nc1ccc(Cl)cc1
IC50 (Leucine aminopeptidase): 12.5 µM (active)

O=C(CN1CCC(NC(=O)c2cccc(F)c2)CC1)NCc1cccs1
IC50 (Aminopeptidase N): 22.6 µM (active)
